Reference: patent EP4114474B1, “HEMOSTATIC AGENT” (Industria Farmaceutica Nova Argentia S.r.l., priority 2020, dated 2021)

Tests used:
[1] = Coagulation tests with combinations of ferric and ferrous salts and other potentially coagulating salts (Example 2); settings: CONC. TEST 5.00% by weight
Experimental: Before reaching the formula object of the invention various other combinations of ferric and ferrous Salts with other potentially coagulating Salts were tested. Below are briefly reported the combinations of Salts tested and the results obtained also in comparison with Ferric Chloride.

[2] = system: NIH3T3L6 fibroblasts; assay: In vitro cytotoxicity, trypan blue cell viability; type: cell-based, murine
Experimental: The cytotoxic effect was assessed in vitro thanks to the use of murine fibroblasts (NIH3T3L6 fibroblasts from Leibniz-Institute DSMZ-Deutsche Sammlung von Mikroorganismen und Zellkulturen GmbH; Brunswick, Germany) and, once the cells were propagated, we prepared the following experimental groups: • control (NIH3T3L6 cells without any treatment); • iron chloride 5% ([…]); • iron ammonium citrate 5.3% + Rock alum 1.7% ([…] 5.3% + Rock alum 1.7%); • iron ammonium citrate 5.3% ([…] 5.3%); • Rock alum 1.7% ([…]).
The in vitro cytotoxicity analysis thanks to the evaluation of the trypan blue allowed us to obtain the percentage of viable cells in each experimental group.

For `O.O.O.O.O.O.[Cl-].[Cl-].[Cl-].[Fe+3]` [Ferric Chloride (FeCl3 · 6H2O)], the “RESULTS (coagulation)” value [1] was “coagulates”, the “cytotoxic effect (cell death, percentage of viable cells by trypan blue)” value ([2]; NIH3T3L6 cells incubated 30" with 100µL) was “significant cell death” and the cell death ([2]; incubation of murine fibroblasts for a time greater than 45"-50") was “complete cell death”.
